Assay results: US20040081712A1, “Substance for treatment of non-insulin dependent diabetes mellitus, hypertension and/or the metabolic syndrome” (priority 2001, published 2004)
Entries after “also recorded” stand apart in the source; their conditions may differ. Each block holds one compound with its values, some of them ahead of it.

Experiments:
[1] = tested on: isolated mouse islets; assay: insulin secretion from isolated mouse islets; format: cell-based; details: for glucose-stimulated insulin secretion: 16.7 mmol/l, 10^−9-10^−3 mol/l; for maximal stimulatory dose: NMRI mouse islets
Experimental: Islet from 6-10 NMRI mice were isolated and incubated in the presence of 16.7 mmol/l and 10^−9-10^−3 mol/l stevioside or 10^−9-10^−3 mol/l steviol. The results of these tests are illustrated in FIGS. 4a and 4b where each column represents mean±SEM from 24 incubations of single islets. Black bars in FIG. 4a indicate that stevioside is present and hatched bars indicate that stevioside is absent. Grey bars in FIG. 4b indicate that steviol is present and hatched bars indicate that steviol is absent. The influence of the maximal stimulatory doses of 10^−3 mol/l stevioside and 10^−6 mol/l steviol was studied in NMRI mouse islets over a range between 0 and 16.7 mmol/l glucose. […] Black bars in FIG. 7a indicate that stevioside is present and hatched bars indicate that stevioside is absent. Grey bars in FIG. 7b indicate that steviol is present and hatched bars indicate that steviol is absent.

[2] = tested on: rats; assay: intravenous administration to rats; details: rat, in vivo
[3] = tested on: Salmonella typhimurium strains; details: cited from earlier work
[4] = another study; cited from earlier work
[5] = tested on: mice; details: mouse, in vivo; cited from earlier work
[6] = tested on: rats; details: rat, in vivo; cited from earlier work
[7] = tested on: hamsters; details: cited from earlier work
[8] = tested on: GK rats; assay: i.v. glucose tolerance test in GK rats; format: in vivo, rat
Experimental: In the following examples, the type II diabetic Goto-Kakizaki (GK) rats originated from Takeda Chemical Ind., Tokyo, Japan and were bred locally.
As examples of the effects of a compound including the chemical formulas II, stevioside was tested on normal Wistar rats and on GK rats. 2.0 g glucose/kg body weight and 0.2 g stevioside/kg body weight were dissolved in 0.9% saline and infused intravenously. The plasma glucose and insulin levels were measured over a period of 2 hours.
The results are shown in FIGS. 2a, 2b, 3a and 3b, were the O-O series (n=6 for Wistar and n=14 for GK) illustrate glucose infused alone and the {circle over (2)}-{circle over (2)} series (n=6 for Wistar and n=12 for GK) illustrate the combined glucose and stevioside infusion. Data are given as mean±SEM.
During a glucose tolerance test, an intravenous bolus of stevioside of 0.2 g/kg body weight was injected in GK rats (the {circle over (2)}-{circle over (2)} serie (n=6)). GK rats receiving 0.9% saline intravenously served as controls (the O-O serie (n=6)). Glucose 2.0 g/kg body weight was administered as a bolus at timepoint 0 min. The plasma glucagon responses are shown as mean±SEM in FIGS. 5a (control) and 5b (GK). The plasma glucagon was suppressed in the stevioside treated GK rat.

[9] = tested on: GK rats; assay: blood pressure during 6 weeks treatment of GK rats; format: in vivo, rat; details: 0.025 g/kg body weight/24 h in drinking water
Experimental: GK rats were treated with stevioside 0.025 g/kg body weight/24 h for 6 weeks. Stevioside was administered in the drinking water. GK rats receiving drinking water with 0.111 g D-glucose/kg body weight/24 h served as controls. Systolic (FIG. 6a, control: O-O series, stevioside-treated: {circle over (2)}-{circle over (2)} series) and diastolic (FIG. 6b, control: O-O series, stevioside-treated: {circle over (2)}-{circle over (2)} series) blood pressures were measured on the tail.

[10] = tested on: type II diabetic patients; assay: acute paired cross-over test meal study; format: in vivo, human; details: 1 g orally with standard meal
Description: Twelve type II diabetic patients (4 female/8 males) with a mean age of 65.8±1.6 years, a diabetes duration of 6.0±1.3 years, a mean body mass index of 28.5±1.0, and a mean glycated hemoglobin HbAlc of 7.4+0.4 percent were included in the study. The experiment was an acute, paired, cross-over study in which two test meals were served during the experiments (A: Standard meal supplemented with 1 g of stevioside given orally; B: Standard meal given together with 1 g of gelatine (placebo) given orally. The total energy content of the test meals was 1725 kJ (protein 16 E %, fat 30 E %, carbohydrate 54 E %). Blood samples were drawn from an antecubital vein 30 minutes before and 240 minutes after ingestion of the test meal. The arterial blood pressure was continuously monitored during the experiment. Students paired t-test was used for comparing the effects of stevioside with placebo on the parameters measured. Data are given as mean±SEM.

[11] = tested on: Goto-Kakizaki rats; assay: four-week test diets with glucose tolerance test in Goto-Kakizaki rats; format: in vivo, rat
Experimental: In the following example is the term “Soy” defined as a composition comprising 65 weight-% soy protein, at least 0.2 weight-% isoflavones and 18 weight-% soy dietary fibres, mostly cotyledon fibres. “Altromin” is a standard carbohydrate rich laboratory animal diet.” Four test diets, A, B, C and D as defined below, were administered for four weeks to four groups of adult rats. A: Altromin; n=12 (Alt). B: Altromin supplemented with stevioside; n=12; (Alt+Ste). C: 80% Soy plus 20% Altromin; n=12; (Soy). D: 80% Soy plus 20% Altromin plus stevioside; n=12; (Soy+Ste) Each experimental group consisted of twelve female Goto-Kakizaki with an age of 9 weeks. The rats received the stevioside (0.025 g/kg body weight/day) with the drinking water. By the end of the third experimental week intra-arterial catheters were implanted into the carotid artery thereby enabling blood sampling during a 240 minutes glucose-tolerance test which was carried out by the end of the experiment at week 4. Blood samples were drawn after a bolus infusion of 2.0 g D-glucose/kg body weight. Plasma concentrations of glucose, insulin, and glucagon were measured during the glucose tolerance test. Immediately before the glucose tolerance test fasting levels of triglycerides and cholesterol were determined. Concomitantly, the systolic blood pressure was measured using a tail cuff. (Plasma glucose was measured using MPR 3, 166 391, Glucose/GOD-PAP Method from Boehringer Mannheim) (Plasma insulin was measured using Sensitive Rat Insulin RIA, Cat # SRI-13K from Linco) (Plasma glucagon was measured using Glucagon RIA, Cat # GL-32K from Linco) (Blood pressure was measured using TSE Non-Invasive Blood Pressure Monitoring System from Technical Scientific Equipment GmbH) (Plasma cholesterol was measured GOD-PAP from Roche and triglycerides was measured using GHOD-PAP from Roche)

[12] = stevioside infusion at normal blood glucose; format: in vivo; details: bolus or constant intravenous infusion
[13] = rats; cited from earlier work
[14] = isolated perfused rat liver; cited from earlier work
[15] = tested on: F344 rats; details: cited from earlier work
[16] = tested on: hamsters; details: doses as high as 2.5 g/kg body weight/day; cited from earlier work
[17] = tested on: isolated normal pancreatic rat islets; details: 7 mmol/l D-glucose, 1,0 mmol/l; cited from earlier work
[18] = tested on: spontaneously hypertensive rats; details: intravenously 200 mg/kg; cited from earlier work

Structure (SMILES): C=C1C[C@@]23CC[C@H]4[C@@](C)(CCC[C@@]4(C)C(=O)O)[C@@H]2CC[C@]1(O)C3 [steviol]
- stimulation of insulin secretion, steviol compared with stevioside [1]: stimulate the insulin secretion to a greater extent
- glucose-stimulated insulin secretion [1]: capable of potentiating glucose-stimulated insulin secretion
- maximal stimulatory dose [1]: 10^−6 mol/l
- effect when administered intravenously to rats [2]: anti-hyperglycemic, glucagonostatic and insulinotropic effect
- mutagenic effect [3]: no mutagenic effect
- mutagenicity [4]: dose-related positive responses
- LD50 [5]: higher than 15 g/kg body weight
- LD50 [6]: higher than 15 g/kg body weight
- LD50 ([7]; hamster, in vivo): 5-6 g/kg body weight
- pathology accompanying lethal dose ([7]; hamsters): degeneration of the proximal tubular cells

- hypoglycemia [12]: did not cause any hypoglycemia
Structure (SMILES): C=C1C[C@@]23CC[C@H]4[C@@](C)(CCC[C@@]4(C)C(=O)O[C@@H]4O[C@H](CO)[C@@H](O)[C@H](O)[C@H]4O)[C@@H]2CC[C@]1(O[C@@H]1O[C@H](CO)[C@@H](O)[C@H](O)[C@H]1O[C@@H]1O[C@H](CO)[C@@H](O)[C@H](O)[C@H]1O)C3 [stevioside]
- time after which significant decrease of plasma glucose was observed ([8]; 2.0 g glucose/kg + 0.2 g stevioside/kg i.v.): 30 min
- plasma glucose response ([8]; 2.0 g glucose/kg + 0.2 g stevioside/kg i.v., 2 hours): inhibited blood glucose responses; also recorded: diminished glucose response
- plasma insulin response ([8]; 2.0 g glucose/kg + 0.2 g stevioside/kg i.v., compared to the Wistar rat): pronounced increase in the insulin response
- plasma glucagon response ([8]; i.v. bolus 0.2 g/kg, glucose 2.0 g/kg): suppressed
- glucose-stimulated insulin secretion [1]: capable of potentiating glucose-stimulated insulin secretion
- maximal stimulatory dose [1]: 10^−3 mol/l
- time of treatment after which decrease in blood pressure was detectable [9]: 2 weeks
- decrease in the blood pressure ([9]; 6 weeks, systolic and diastolic, tail): 10-15%
- absolute IAUC postprandial blood glucose [10]: 522±64 mmol/l x 240 min
- insulin response (IAUC) [10]: the difference did not reach statistical significance
- postprandial glucagon levels [10]: 281±33
- reduction of postprandial blood glucose response compared to placebo [10]: 18±5%
- area under the plasma-glucagon response curve, in words ([11]; both Altromin and soy groups): significantly reduced
- area under the glucose response curve, in words ([11]; glucose tolerance test): reduced the incremental area (IAUC) under the glucose response curve
- first phase insulin response, in words ([11]; glucose tolerance test): significantly improved the first phase insulin responses
- insulin response curve 0 to 240 minutes, in words ([11]; glucose tolerance test): did not alter the insulin responses
- fasting triglyceride levels, in words ([11]; rat, in vivo): significant suppression of the fasting triglyceride levels
- suppression of the systolic blood pressure (Δ) ([11]; stevioside in combination with Altromin): −28 mmHg
- suppression of the systolic blood pressure (Δ) ([11]; stevioside in combination with soy): −21 mmHg
- effect when administered intravenously to rats [2]: anti-hyperglycemic, glucagonostatic and insulinotropic effect
- route of excretion [13]: excreted by the urine
- metabolism [14]: not metabolised
- mutagenic effect [3]: no mutagenic effect
- mutagenicity [4]: not mutagenic
- carcinogenicity [15]: not carcinogenic
- effect on growth or reproduction [16]: no effect on growth or reproduction
- insulin output [17]: significant increase in insulin output
- fall in the systolic blood pressure [18]: only small
